In patent publication US20130178441A1, “Methods for Extending Progression-Free Survival using 10-Propargyl-10-Deazaaminopterin” (ALLOS THERAPEUTICS, INC., priority 2010, published 2013):
Where “and” joins values, the source holds several entries; their conditions need not be identical. Equal values may be shown once. Marks after values point to notes of the source that are not given here.

What was measured:
Assay type in all cases: in vivo, human
[1] = test system: relapsed or refractory peripheral T-cell lymphoma (PTCL); experiment: PROPEL (PDX-008) pivotal trial of pralatrexate, overall population (N=109)
Text: Pralatrexate was approved under the provisions of accelerated approval is the United States for the treatment of patients with relapsed/refractory PTCL based on the results of the pivotal trial PROPEL (Pralatrexate in Patients with Relapsed Or Refractory Peripheral T-cell Lymphoma). The primary endpoint, objective response rate (ORR) by independent central review using International Workshop Criteria, was 29% (32/109), including 11% complete response/complete response unconfirmed (CR/CRu) with a median duration of response of 10.1 months. The ORR by investigator assessment was 39% (43/109), including 18% CR/CRu.
(§1) The prognosis of aggressive PTCL is dismal. Investigators have developed salvage regimens attempting to improve outcomes for patients with relapsed or refractory disease. One such regimen frequently used is ifosfamide, carboplatin, and etoposide (ICE) or ICE-based regimens (eg, and rituximab-ICE [RICE] and dexamethasome-ICE [DICE]). These regimens can have response rates approaching 70% and patients may proceed to a stem cell transplant, yet most patients tend to relapse quickly (Horwitz et al Blood 2005; 106:a2679). Thus, optimal approaches for patients with relapsed or refractory disease are needed, and agents based on a unique mechanism of action warrant study. This analysis was conducted to determine if pralatrexate offered a beneficial treatment option for patients after treatment with an ICE/RICE/DICE regimen. Methods: Pralatrexate was administered via intravenous push over 3 to 5 minutes at 30 mg/m^2/week for six weeks in 7-week cycles with concurrent 1 mg vitamin B12 intramuscular every 8 to 10 weeks and folic acid 1.0 to 1.25 mg by mouth once daily. 109 patients were treated with pralatrexate in the PROPEL study. All patients in the PROPEL study had received at least 1 prior therapy for PTCL. A subset of 20 patients had received ICE, RICE or DICE at some point prior to treatment with pralatrexate. The efficacy in these patients was compared to the remainder of the patient population who had not received ICE/RICE/DICE as a therapy for PTCL prior to pralatrexate (n=89). The patient population that previously received an ICE-based regimen was heavily pretreated with am edian of 3 prior systemic regimens (range, 2-11). The median age was 45 years, a younger patient population compared with the overall PROPEL population (59 years).
(§2) The pivotal PROPEL study of pralatrexate (FOLOTYN®) in patients with relapsed or refractory PTCL reported a rapid response to treatment in a heavily pretreated patient population. The majority of patients (63% of responders) responded by their first assessment at 7 weeks (the end of cycle 1). The present analysis assessed if there were any unique characteristics of patients who were unable to complete the first cycle of therapy and to assess the outcomes of patients who received ≧1 or ≧2 cycles of pralatrexate. Pralatrexate, a folate analog targeting dihydrofolate reductase, was approved in the United States for treatment of relapsed or refractory PTCL based on the PROPEL study. Methods: In PROPEL, patients received 30 mg/m^2 pralatrexate once weekly for 6 weeks in successive 7-week cycles. […] Cycle completion was determined receiving ≧1 dose in the following cycle. Thus, the subgroup of patients who completed ≧1 (n=64) includes those patients who only completed 1 cycle+the 43 who completed ≧2 cycles of treatment. […] However, the patients not completing cycle lwere more likely to have the angioimmunoblastic subtype (20% vs 6%). Patients in each subgroup received a median of 3 prior treatment regimens.

relapsed/refractory PTCL [2] = experiment: PROPEL analysis by treatment duration (<1, ≧1, ≧2 cycles of pralatrexate): efficacy; settings: for Median PFS by Central Review (months): Kaplan-Meier
Experimental: as §2

relapsed/refractory PTCL [3] = experiment: PROPEL subset analysis: patients previously treated with ICE-based regimens (N=20) vs other patients (n=89)
Text: as §1
ORR, duration of response, and progression-free survival (PFS) by independent central review and investigator assessment, and OS, are presented in Table 6. Details of the patients who responded to pralatrexate according to assessment by independent central review are provided in Table 7.

[4] = Treatment Duration <1 cycle (n=45)
[5] = Treatment Duration ≧1 cycle (n=64)
[6] = Treatment Duration ≧2 cycles (n=43)
[7] = 20 patients with prior ICE/RICE/DICE
[8] = individual responders previously treated with ICE (N=8), central review, some values censored
[9] = of the 8 patients who did not respond to ICE as most recent therapy
[10] = prior ICE-based regimen, N=20, independent central review
[11] = prior ICE-based regimen, N=20, independent central review, Kaplan-Meier
[12] = prior ICE-based regimen, N=20, investigator assessment
[13] = prior ICE-based regimen, N=20, investigator assessment, Kaplan-Meier

C#CCC(Cc1cnc2nc(N)nc(N)c2n1)c1ccc(C(=O)N[C@@H](CCC(=O)O)C(=O)O)cc1 (mixture of isomers) [Pralatrexate, (2S)-2-[[4-[(1RS)-1-[(2,4-diaminopteridin-6-yl)methyl]but-3-ynyl]benzoyl]amino]pentanedioic acid]
Responders who responded by their first assessment at 7 weeks (end of cycle 1) ([1]; % of responders): 63% | CR/CRu (complete response/complete response unconfirmed) by independent central review ([1]; all 109 patients): 11% | CR/CRu by investigator assessment ([1]; all 109 patients): 18% | Median duration of PFS by central review ([1]; all 109 patients): 3.5 months | Median duration of PFS by investigator assessment ([1]; all 109 patients): 4.0 months | Median duration of response by central review ([1]; all 109 patients): 10.1 months | Median duration of response by investigator assessment ([1]; all 109 patients): 8.1 months | ORR by investigator assessment ([1]; all 109 patients): 39% | Objective response rate (ORR) by independent central review using International Workshop Criteria ([1]; all 109 patients): 29% | Median OS (months) (relapsed/refractory PTCL [2]; [4]): 8.2 months | ORR by Central Review (CR + CRu + PR) (relapsed/refractory PTCL [2]; [4]): 7% | ORR by Investigator Assessment (CR + CRu + PR) (relapsed/refractory PTCL [2]; [4]): 7% | Median PFS by Central Review (months) (relapsed/refractory PTCL [2]; [4]): 1.3 months | Median Duration of Response by Central Review (months) (relapsed/refractory PTCL [2]; [5]): 10.1 months | Median OS (months) (relapsed/refractory PTCL [2]; [5]): 20.5 months | ORR by Central Review (CR + CRu + PR) (relapsed/refractory PTCL [2]; [5]): 45% | ORR by Investigator Assessment (CR + CRu + PR) (relapsed/refractory PTCL [2]; [5]): 63% | Median PFS by Central Review (months) (relapsed/refractory PTCL [2]; [5]): 4.9 months | Median Duration of Response by Central Review (months) (relapsed/refractory PTCL [2]; [6]): 13.1 months | Median OS (months) (relapsed/refractory PTCL [2]; [6]): 22.9 months | ORR by Central Review (CR + CRu + PR) (relapsed/refractory PTCL [2]; [6]): 54% | ORR by Investigator Assessment (CR + CRu + PR) (relapsed/refractory PTCL [2]; [6]): 70% | Median PFS by Central Review (months) (relapsed/refractory PTCL [2]; [6]): 8.1 months | CR/CRu based on investigators assessment (relapsed/refractory PTCL [3]; [7]): 25% | Complete responses [CR] by independent central review (relapsed/refractory PTCL [3]; [7]): 15% | ORR based on investigators assessment (relapsed/refractory PTCL [3]; [7]): 40% | Overall response rate (ORR) by independent central review (relapsed/refractory PTCL [3]; [7]): 40% | Median PFS in the 20 patients relative to that of the other patients (relapsed/refractory PTCL [3]; central review): over 3 times | Duration of Response (months) (relapsed/refractory PTCL [3]; [8]): 17.1^b months and 13.1 months and 10.1 months and 3.4 months and 1.6 months | PFS (months) (relapsed/refractory PTCL [3]; [8]): 14.4 months and 17.8 months and 4.8 months and 3.0 months | Duration of Response (months) (relapsed/refractory PTCL [3]; individual responders previously treated with ICE (N=8), central review, some values censored, listed as pralatrexate): 1.3 months and 4.9 months | CR to pralatrexate (relapsed/refractory PTCL [3]; [9]): 2 patients | PR to pralatrexate (relapsed/refractory PTCL [3]; [9]): 1 patients | Patients who responded to pralatrexate (relapsed/refractory PTCL [3]; [9]): 3 patients | Patients who responded to pralatrexate (relapsed/refractory PTCL [3]; of the 15 patients who did not have a response to a prior ICE-based regimen): 40% | Patients who proceeded to a stem cell transplant upon attaining a response to pralatrexate (relapsed/refractory PTCL [3]; of the 20 patients with prior ICE/RICE/DICE): Two | CR/CRu based on investigators assessment (relapsed/refractory PTCL [3]; other 89 patients): 17% | CR/CRu by independent central review (relapsed/refractory PTCL [3]; other 89 patients): 10% | Median PFS according to central review (relapsed/refractory PTCL [3]; other 89 patients): 3.3 months | Median duration of response by central review (relapsed/refractory PTCL [3]; other 89 patients): 9.4 months | Median duration of response per investigator assessment (relapsed/refractory PTCL [3]; other 89 patients): 6.8 months | ORR based on investigators assessment (relapsed/refractory PTCL [3]; other 89 patients): 39% | ORR by independent central review (relapsed/refractory PTCL [3]; other 89 patients (no prior ICE/RICE/DICE)): 27% | OS, Median, months (95% CI) (relapsed/refractory PTCL [3]; prior ICE-based regimen, N=20, Kaplan-Meier): 12.0 (5.2, 23.4) months | Duration of response, Range (relapsed/refractory PTCL [3]; [10]): 1.3-22.1 months | Tumor response: CR (relapsed/refractory PTCL [3]; [10]): 3 (15) n (%) | Tumor response: ORR (CR + PR) (relapsed/refractory PTCL [3]; [10]): 8 (40) n (%) | Tumor response: PD (relapsed/refractory PTCL [3]; [10]): 4 (20) n (%) | Tumor response: PR (relapsed/refractory PTCL [3]; [10]): 5 (25) n (%) | Tumor response: SD (relapsed/refractory PTCL [3]; [10]): 2 (10) n (%) | Duration of response, Median, months (95% CI) (relapsed/refractory PTCL [3]; [11]): 13.1 months and 13.1 (3.4, NA) months | PFS, Median, months (95% CI) (relapsed/refractory PTCL [3]; [11]): 14.4 months and 14.4 (1.5, NA) months | Tumor response: CR (relapsed/refractory PTCL [3]; [12]): 5 (25) n (%) | Tumor response: NA (not assessable) (relapsed/refractory PTCL [3]; [12]): 1 (5) n (%) | Tumor response: ORR (CR + PR) (relapsed/refractory PTCL [3]; [12]): 8 (40) n (%) | Tumor response: PD (relapsed/refractory PTCL [3]; [12]): 6 (30) n (%) | Tumor response: PR (relapsed/refractory PTCL [3]; [12]): 3 (15) n (%) | Tumor response: SD (relapsed/refractory PTCL [3]; [12]): 5 (25) n (%) | Duration of response, Median, months (95% CI) (relapsed/refractory PTCL [3]; [13]): 16.2 months and 16.2 (3.4, NA) months | PFS, Median, months (95% CI) (relapsed/refractory PTCL [3]; [13]): 4.8 (2.5, 14.4) months | OS, Range (relapsed/refractory PTCL [3]; prior ICE-based regimen, N=20, survival follow up ended at two years): 1.1-24.0^d months
